Experiment [1] has as its system antibodies in sera from SARS patients (sera 1a, 1b, 2, 6, 37, 62, London, SARS-yellow, SARS-green). In kind it is binding, human. Details: Binding of serum 6 to linear peptides of protein X1 of SARS-CoV Urbani / Binding of serum 37 to linear peptides of protein X1 of SARS-CoV Urbani / Binding of serum 6 to looped/cyclic peptide (PEPSCAN-ELISA) / Binding of serum 37 to looped/cyclic peptide (PEPSCAN-ELISA) / Binding of serum 37 to looped/cyclic peptides of protein X1 of SARS-CoV Urbani / Binding of serum 6 to linear peptides of protein X2 / Binding of serum 37 to linear peptides of protein X2 / Binding of serum 37 to looped/cyclic peptides of protein X2 of SARS-CoV Urbani / Binding of serum 6 to linear peptides of protein M of SARS-CoV Urbani / Binding of serum 37 to linear peptides of protein M of SARS-CoV Urbani / Binding of serum 6 to looped/cyclic peptides of protein M of SARS-CoV Urbani / Binding of serum 37 to looped/cyclic peptides of protein M of SARS-CoV Urbani / Binding of serum 6 to linear peptides of protein X3 of SARS-CoV Urbani / Binding of serum 37 to linear peptides of protein X3 of SARS-CoV Urbani / Binding of serum 37 to looped/cyclic peptides of protein X3 of SARS-CoV Urbani / Binding of serum 6 to linear peptides of protein X4 of SARS-CoV Urbani / Binding of serum 37 to linear peptides of protein X4 of SARS-CoV Urbani / Binding of serum 37 to looped/cyclic peptides of protein X4 of SARS-CoV Urbani / Binding of serum 6 to linear peptides of protein X5 of SARS-CoV Urbani / Binding of serum 37 to linear peptides of protein X5 of SARS-CoV Urbani / Binding of serum 37 to looped/cyclic peptides of protein X5 of SARS-CoV Urbani / Binding of serum 6 to linear peptides of protein N of SARS-CoV Urbani / Binding of serum 37 to linear peptides of protein N of SARS-CoV Urbani / Binding of serum 6 to linear peptide (PEPSCAN-ELISA) / Binding of serum 1a to looped/cyclic peptides of protein N of SARS-CoV Urbani / Binding of serum 1b to looped/cyclic peptides of protein N of SARS-CoV Urbani / Binding of serum 2 to looped/cyclic peptides of protein N of SARS-CoV Urbani / Binding of serum 6 to looped/cyclic peptides of protein N of SARS-CoV Urbani / Binding of serum 37 to looped/cyclic peptides of protein N of SARS-CoV Urbani / Binding of serum 62 to looped/cyclic peptides of protein N of SARS-CoV Urbani / Binding of serum London to looped/cyclic peptides of protein N of SARS-CoV Urbani / Binding of serum SARS-green to looped/cyclic peptides of protein N of SARS-CoV Urbani: unit not given here.

Experiment [2] relates to control sera (pooled serum of ten healthy LUMC hospital workers; commercial negative donor pooled serum from the Dutch bloodbank). In kind it is binding, human. Details: Binding of Control serum LUMC to linear peptides / Binding of Control serum Blood-bank to linear peptides / Binding of Control serum LUMC to looped peptides / Binding of Control Serum Blood-Bank to Looped peptides / Binding of Control serum LUMC to linear peptides of the protein M of SARS-CoV Urbani / Binding of Control serum Blood-bank to linear peptides of the protein M of SARS-CoV Urbani / Binding of Control serum LUMC to looped peptides of the protein M of SARS-CoV Urbani / Binding of Control Serum Blood-Bank to Looped peptides of the protein M of SARS-CoV Urbani: unit not given here.

The test system of experiment [3] is rabbit serum obtained by immunizing a rabbit with the SARS-CoV strain Frankfurt 1. In kind it is binding. Details: Binding of a rabbit serum to linear peptides / Binding of a rabbit serum to looped peptides / Rabbit serum linear peptides / Rabbit serum looped peptides / Binding of a rabbit serum to linear peptides of protein N of SARS-CoV Urbani (Rabbit serum linear peptides) / Binding of a rabbit serum to looped/cyclic peptides of protein N of SARS-CoV Urbani (Rabbit serum looped peptides): unit not given here.

Regarding YNSVTDTIVVTEGDG, in experiment [1], the “Binding of serum 1a to linear peptides of protein X1 of SARS-CoV Urbani” value worked out at 0.6, the “Binding of serum 1a to looped/cyclic peptides of protein X1 of SARS-CoV Urbani” value is on record as 0.4, the “Binding of serum 1b to linear peptides of protein X1 of SARS-CoV Urbani” value was found to be 0.5 and the “Binding of serum 1b to looped/cyclic peptides of protein X1 of SARS-CoV Urbani” value is reported as 0.3. In experiment [1], the “Binding of serum 2 to linear peptides of protein X1 of SARS-CoV Urbani” value is listed as 0.4, the “Binding of serum 2 to looped/cyclic peptides of protein X1 of SARS-CoV Urbani” value is 0.2, the “Binding of serum 6 to linear peptides of protein X1 of SARS-CoV Urbani” value is 0.4 and the “Binding of serum 6 to looped/cyclic peptides of protein X1 of SARS-CoV Urbani” value is reported as 0.2. In addition, in experiment [1], the “Binding of serum 37 to linear peptides of protein X1 of SARS-CoV Urbani” value came to 0.5, the “Binding of serum 37 to looped/cyclic peptides of protein X1 of SARS-CoV Urbani” value was 0.4, the “Binding of serum 62 to linear peptides of protein X1 of SARS-CoV Urbani” value is recorded as 0.5 and the “Binding of serum 62 to looped/cyclic peptides of protein X1 of SARS-CoV Urbani” value is 0.3. Besides, in experiment [1], the “Binding of serum London to linear peptides of protein X1 of SARS-CoV Urbani” value worked out at 0.2, the “Binding of serum London to looped/cyclic peptides of protein X1 of SARS-CoV Urbani” value is recorded as 0.2, the “Binding of serum SARS-green to linear peptides of protein X1 of SARS-CoV Urbani” value was determined as 0.3 and the “Binding of serum SARS-green to looped/cyclic peptides of protein X1 of SARS-CoV Urbani” value was 0.3. In experiment [1], the “Binding of serum SARS-yellow to linear peptides of protein X1 of SARS-CoV Urbani” value amounted to 0.4 and the “Binding of serum SARS-yellow to looped/cyclic peptides of protein X1 of SARS-CoV Urbani” value is reported as 0.3. In experiment [2], the “Binding of Control Serum Blood-Bank to Looped peptides” value came to 0.3, the “Binding of Control serum Blood-bank to linear peptides” value was 0.4, the “Binding of Control serum LUMC to linear peptides” value amounted to 0.4 and the “Binding of Control serum LUMC to looped peptides” value was 0.4. In addition, in experiment [3], the “Binding of a rabbit serum to linear peptides” value is 0.1 and the “Binding of a rabbit serum to looped peptides” value was found to be 0.5.
For YQLESTQITTDTGIE, in experiment [1], the “Binding of serum 1a to linear peptides of protein X1 of SARS-CoV Urbani” value came out at 0.6, the “Binding of serum 1a to looped/cyclic peptides of protein X1 of SARS-CoV Urbani” value was determined as 0.4, the “Binding of serum 1b to linear peptides of protein X1 of SARS-CoV Urbani” value is recorded as 0.5 and the “Binding of serum 1b to looped/cyclic peptides of protein X1 of SARS-CoV Urbani” value worked out at 0.3. In experiment [1], the “Binding of serum 2 to linear peptides of protein X1 of SARS-CoV Urbani” value worked out at 0.4, the “Binding of serum 2 to looped/cyclic peptides of protein X1 of SARS-CoV Urbani” value is 0.1, the “Binding of serum 6 to linear peptides of protein X1 of SARS-CoV Urbani” value was 0.5 and the “Binding of serum 6 to looped/cyclic peptides of protein X1 of SARS-CoV Urbani” value amounted to 0.1. Also, in experiment [1], the “Binding of serum 37 to linear peptides of protein X1 of SARS-CoV Urbani” value is 0.6, the “Binding of serum 37 to looped/cyclic peptides of protein X1 of SARS-CoV Urbani” value worked out at 0.3, the “Binding of serum 62 to linear peptides of protein X1 of SARS-CoV Urbani” value is recorded as 0.5 and the “Binding of serum 62 to looped/cyclic peptides of protein X1 of SARS-CoV Urbani” value was 0.3. Moreover, in experiment [1], the “Binding of serum London to linear peptides of protein X1 of SARS-CoV Urbani” value is recorded as 0.2, the “Binding of serum London to looped/cyclic peptides of protein X1 of SARS-CoV Urbani” value was 0.1, the “Binding of serum SARS-green to linear peptides of protein X1 of SARS-CoV Urbani” value was 0.4 and the “Binding of serum SARS-green to looped/cyclic peptides of protein X1 of SARS-CoV Urbani” value is 0.2. In experiment [1], the “Binding of serum SARS-yellow to linear peptides of protein X1 of SARS-CoV Urbani” value was 0.5 and the “Binding of serum SARS-yellow to looped/cyclic peptides of protein X1 of SARS-CoV Urbani” value was determined as 0.2. In experiment [2], the “Binding of Control Serum Blood-Bank to Looped peptides” value turned out to be 0.3, the “Binding of Control serum Blood-bank to linear peptides” value is 0.4, the “Binding of Control serum LUMC to linear peptides” value was determined as 0.4 and the “Binding of Control serum LUMC to looped peptides” value stood at 0.4. Also, in experiment [3], the “Binding of a rabbit serum to linear peptides” value is reported as 0.1 and the “Binding of a rabbit serum to looped peptides” value worked out at 0.4.
As for YQLRARSVSPKLFIR, in experiment [1], the “Binding of serum 1a to linear peptides of protein X4 of SARS-CoV Urbani” value was 0.7, the “Binding of serum 1a to looped/cyclic peptides of protein X4 of SARS-CoV Urbani” value stood at 0.7, the “Binding of serum 1b to linear peptides of protein X4 of SARS-CoV Urbani” value is reported as 0.6 and the “Binding of serum 1b to looped/cyclic peptides of protein X4 of SARS-CoV Urbani” value is given as 0.4. Further, in experiment [1], the “Binding of serum 2 to linear peptides of protein X4 of SARS-CoV Urbani” value stood at 0.6, the “Binding of serum 2 to looped/cyclic peptides of protein X4 of SARS-CoV Urbani” value is listed as 0.6, the “Binding of serum 6 to linear peptides of protein X4 of SARS-CoV Urbani” value is reported as 0.7 and the “Binding of serum 6 to looped/cyclic peptides of protein X4 of SARS-CoV Urbani” value was found to be 1.2. In experiment [1], the “Binding of serum 37 to linear peptides of protein X4 of SARS-CoV Urbani” value was 0.8, the “Binding of serum 37 to looped/cyclic peptides of protein X4 of SARS-CoV Urbani” value is recorded as 0.7, the “Binding of serum 62 to linear peptides of protein X4 of SARS-CoV Urbani” value is 0.7 and the “Binding of serum 62 to looped/cyclic peptides of protein X4 of SARS-CoV Urbani” value stood at 0.6. Further, in experiment [1], the “Binding of serum London to linear peptides of protein X4 of SARS-CoV Urbani” value is given as 0.8, the “Binding of serum London to looped/cyclic peptides of protein X4 of SARS-CoV Urbani” value is listed as 1.4, the “Binding of serum SARS-green to linear peptides of protein X4 of SARS-CoV Urbani” value amounted to 0.7 and the “Binding of serum SARS-green to looped/cyclic peptides of protein X4 of SARS-CoV Urbani” value worked out at 0.4. In addition, in experiment [1], the “Binding of serum SARS-yellow to linear peptides of protein X4 of SARS-CoV Urbani” value was 0.6 and the “Binding of serum SARS-yellow to looped/cyclic peptides of protein X4 of SARS-CoV Urbani” value was found to be 0.9. Further, in experiment [2], the “Binding of Control Serum Blood-Bank to Looped peptides” value stood at 0.7, the “Binding of Control serum Blood-bank to linear peptides” value is reported as 0.6, the “Binding of Control serum LUMC to linear peptides” value was 0.6 and the “Binding of Control serum LUMC to looped peptides” value came out at 0.7. In experiment [3], the “Recognition of the peptide by the rabbit serum” value is “recognized”.
Consider YSPLFLIVAALVFLI, for which, in experiment [1], the “Binding of serum 1a to linear peptides of protein X4 of SARS-CoV Urbani” value amounted to 0.7, the “Binding of serum 1a to looped/cyclic peptides of protein X4 of SARS-CoV Urbani” value came out at 0.7, the “Binding of serum 1b to linear peptides of protein X4 of SARS-CoV Urbani” value is reported as 0.3 and the “Binding of serum 1b to looped/cyclic peptides of protein X4 of SARS-CoV Urbani” value was found to be 0.3. In experiment [1], the “Binding of serum 2 to linear peptides of protein X4 of SARS-CoV Urbani” value amounted to 0.5, the “Binding of serum 2 to looped/cyclic peptides of protein X4 of SARS-CoV Urbani” value is given as 0.6, the “Binding of serum 6 to linear peptides of protein X4 of SARS-CoV Urbani” value is given as 0.5 and the “Binding of serum 6 to looped/cyclic peptides of protein X4 of SARS-CoV Urbani” value is listed as 0.4. Also, in experiment [1], the “Binding of serum 37 to linear peptides of protein X4 of SARS-CoV Urbani” value came to 0.7, the “Binding of serum 37 to looped/cyclic peptides of protein X4 of SARS-CoV Urbani” value amounted to 0.6, the “Binding of serum 62 to linear peptides of protein X4 of SARS-CoV Urbani” value came out at 0.7 and the “Binding of serum 62 to looped/cyclic peptides of protein X4 of SARS-CoV Urbani” value amounted to 0.6. In addition, in experiment [1], the “Binding of serum London to linear peptides of protein X4 of SARS-CoV Urbani” value is listed as 0.7, the “Binding of serum London to looped/cyclic peptides of protein X4 of SARS-CoV Urbani” value is recorded as 0.3, the “Binding of serum SARS-green to linear peptides of protein X4 of SARS-CoV Urbani” value amounted to 0.5 and the “Binding of serum SARS-green to looped/cyclic peptides of protein X4 of SARS-CoV Urbani” value turned out to be 0.6. For the same sequence, in experiment [1], the “Binding of serum SARS-yellow to linear peptides of protein X4 of SARS-CoV Urbani” value was found to be 0.4 and the “Binding of serum SARS-yellow to looped/cyclic peptides of protein X4 of SARS-CoV Urbani” value is given as 0.4. Besides, in experiment [2], the “Binding of Control Serum Blood-Bank to Looped peptides” value is given as 0.4, the “Binding of Control serum Blood-bank to linear peptides” value is 0.6, the “Binding of Control serum LUMC to linear peptides” value is given as 0.5 and the “Binding of Control serum LUMC to looped peptides” value stood at 0.7. Besides, in experiment [3], the “Rabbit serum linear peptides” value stood at 0.3 and the “Rabbit serum looped peptides” value is 0.5.

The values above are taken from US20070128217A1 (priority 2003, published 2007).
